# Species: Rattus norvegicus
# Test: DrugMatrix - Regimen: Daily Repeat
# Type: toxicity, organism-based, Sprague-Dawley
# Parameters: regimen Daily Repeat, gender Male, age 6-8 weeks
# Conditions: in vivo, po, route oral GAVAGE, vehicle .5 % CMC; for BASOPHIL / EOSINOPHIL / ERYTHROCYTE COUNT / HEMATOCRIT / HEMOGLOBIN / LEUKOCYTE COUNT / LYMPHOCYTE / MEAN CORPUSCULAR HEMOGLOBIN / MEAN CORPUSCULAR HEMOGLOBIN CONCENTRATION / MEAN CORPUSCULAR VOLUME / MONOCYTE / NEUTROPHIL / PLATELET COUNT: tissue Blood; for ALANINE AMINOTRANSFERASE / ALBUMIN / ALKALINE PHOSPHATASE / ASPARTATE AMINOTRANSFERASE / BLOOD UREA NITROGEN / CHLORIDE / CHOLESTEROL / CREATINE PHOSPHOKINASE / CREATININE / GLUCOSE / PHOSPHORUS / POTASSIUM / SODIUM / TOTAL BILIRUBIN / TOTAL PROTEIN: tissue Plasma
# [1] = 0 mg/kg, 72 h, dose level Control, time 3 day
# [2] = 0 mg/kg, 120 h, dose level Control, time 5 day
# [3] = 8 mg/kg, 72 h, dose level Low, time 3 day
# [4] = 8 mg/kg, 120 h, dose level Low, time 5 day
# [5] = 24 mg/kg, 72 h, dose level High, time 3 day
# [6] = 24 mg/kg, 120 h, dose level High, time 5 day
compound,measurement,setting,value
CCc1cccc2c3c([nH]c12)C(CC)(CC(=O)O)OCC3 (stereo not drawn) [ETODOLAC],BASOPHIL,[1],1.52%
same,EOSINOPHIL,[1],0.98%
same,ERYTHROCYTE COUNT,[1],6.96 x10E6/uL
same,HEMATOCRIT,[1],44.65%
same,HEMOGLOBIN,[1],13.62 G/DL
same,LEUKOCYTE COUNT,[1],9.83 x10E3/uL
same,LYMPHOCYTE,[1],76.48%
same,MEAN CORPUSCULAR HEMOGLOBIN,[1],19.57 pg
same,MEAN CORPUSCULAR HEMOGLOBIN CONCENTRATION,[1],30.47 G/DL
same,MEAN CORPUSCULAR VOLUME,[1],64.22 fL
same,MONOCYTE,[1],2.13%
same,NEUTROPHIL,[1],18.6%
same,PLATELET COUNT,[1],1217.17 x10E3/uL
same,ALANINE AMINOTRANSFERASE,[1],41 u/L
same,ALBUMIN,[1],3.77 G/DL
same,ALKALINE PHOSPHATASE,[1],411.83 u/L
same,ASPARTATE AMINOTRANSFERASE,[1],62.83 u/L
same,BLOOD UREA NITROGEN,[1],15.17 mg/dL
same,CHLORIDE,[1],104.33 MEQ/L
same,CHOLESTEROL,[1],71.17 mg/dL
same,CREATINE PHOSPHOKINASE,[1],123.5 u/L
same,CREATININE,[1],0.55 mg/dL
same,GLUCOSE,[1],182.67 mg/dL
same,PHOSPHORUS,[1],11.23 mg/dL
same,POTASSIUM,[1],7.03 MEQ/L
same,SODIUM,[1],148 MEQ/L
same,TOTAL BILIRUBIN,[1],0.57 mg/dL
same,TOTAL PROTEIN,[1],6.85 G/DL
same,BASOPHIL,[2],1.35%
same,EOSINOPHIL,[2],0.43%
same,ERYTHROCYTE COUNT,[2],6.96 x10E6/uL
same,HEMATOCRIT,[2],44.35%
same,HEMOGLOBIN,[2],13.98 G/DL
same,LEUKOCYTE COUNT,[2],9.45 x10E3/uL
same,LYMPHOCYTE,[2],80.83%
same,MEAN CORPUSCULAR HEMOGLOBIN,[2],20.1 pg
same,MEAN CORPUSCULAR HEMOGLOBIN CONCENTRATION,[2],31.52 G/DL
same,MEAN CORPUSCULAR VOLUME,[2],63.72 fL
same,MONOCYTE,[2],2.37%
same,NEUTROPHIL,[2],14.05%
same,PLATELET COUNT,[2],1298 x10E3/uL
same,ALANINE AMINOTRANSFERASE,[2],42.17 u/L
same,ALBUMIN,[2],3.77 G/DL
same,ALKALINE PHOSPHATASE,[2],419 u/L
same,ASPARTATE AMINOTRANSFERASE,[2],66.67 u/L
same,BLOOD UREA NITROGEN,[2],16.67 mg/dL
same,CHLORIDE,[2],103.17 MEQ/L
same,CHOLESTEROL,[2],66.33 mg/dL
same,CREATINE PHOSPHOKINASE,[2],148.33 u/L
same,CREATININE,[2],0.58 mg/dL
same,GLUCOSE,[2],196.83 mg/dL
same,PHOSPHORUS,[2],11.8 mg/dL
same,POTASSIUM,[2],6.47 MEQ/L
same,SODIUM,[2],148.33 MEQ/L
same,TOTAL BILIRUBIN,[2],0.53 mg/dL
same,TOTAL PROTEIN,[2],6.77 G/DL
same,BASOPHIL,[3],2.87%
same,EOSINOPHIL,[3],0.5%
same,ERYTHROCYTE COUNT,[3],7.29 x10E6/uL
same,HEMATOCRIT,[3],46.3%
same,HEMOGLOBIN,[3],14.43 G/DL
same,LEUKOCYTE COUNT,[3],10.83 x10E3/uL
same,LYMPHOCYTE,[3],74.43%
same,MEAN CORPUSCULAR HEMOGLOBIN,[3],19.83 pg
same,MEAN CORPUSCULAR HEMOGLOBIN CONCENTRATION,[3],31.17 G/DL
same,MEAN CORPUSCULAR VOLUME,[3],63.57 fL
same,MONOCYTE,[3],2.53%
same,NEUTROPHIL,[3],19.13%
same,PLATELET COUNT,[3],1601 x10E3/uL
same,ALANINE AMINOTRANSFERASE,[3],44.33 u/L
same,ALBUMIN,[3],3.8 G/DL
same,ALKALINE PHOSPHATASE,[3],358.67 u/L
same,ASPARTATE AMINOTRANSFERASE,[3],64 u/L
same,BLOOD UREA NITROGEN,[3],12.33 mg/dL
same,CHLORIDE,[3],102.67 MEQ/L
same,CHOLESTEROL,[3],62 mg/dL
same,CREATINE PHOSPHOKINASE,[3],129.67 u/L
same,CREATININE,[3],0.57 mg/dL
same,GLUCOSE,[3],182.33 mg/dL
same,PHOSPHORUS,[3],13.07 mg/dL
same,POTASSIUM,[3],7.23 MEQ/L
same,SODIUM,[3],148.67 MEQ/L
same,TOTAL BILIRUBIN,[3],0.37 mg/dL
same,TOTAL PROTEIN,[3],6.7 G/DL
same,BASOPHIL,[4],2.2%
same,EOSINOPHIL,[4],0.17%
same,ERYTHROCYTE COUNT,[4],7.21 x10E6/uL
same,HEMATOCRIT,[4],45.2%
same,HEMOGLOBIN,[4],14.13 G/DL
same,LEUKOCYTE COUNT,[4],12.43 x10E3/uL
same,LYMPHOCYTE,[4],78.07%
same,MEAN CORPUSCULAR HEMOGLOBIN,[4],19.67 pg
same,MEAN CORPUSCULAR HEMOGLOBIN CONCENTRATION,[4],31.37 G/DL
same,MEAN CORPUSCULAR VOLUME,[4],62.7 fL
same,MONOCYTE,[4],3.4%
same,NEUTROPHIL,[4],15.23%
same,PLATELET COUNT,[4],1492.67 x10E3/uL
same,ALANINE AMINOTRANSFERASE,[4],41.67 u/L
same,ALBUMIN,[4],3.8 G/DL
same,ALKALINE PHOSPHATASE,[4],376 u/L
same,ASPARTATE AMINOTRANSFERASE,[4],62.67 u/L
same,BLOOD UREA NITROGEN,[4],16 mg/dL
same,CHLORIDE,[4],102 MEQ/L
same,CHOLESTEROL,[4],67.33 mg/dL
same,CREATINE PHOSPHOKINASE,[4],145 u/L
same,CREATININE,[4],0.6 mg/dL
same,GLUCOSE,[4],181.33 mg/dL
same,PHOSPHORUS,[4],12.37 mg/dL
same,POTASSIUM,[4],6.73 MEQ/L
same,SODIUM,[4],149 MEQ/L
same,TOTAL BILIRUBIN,[4],0.33 mg/dL
same,TOTAL PROTEIN,[4],6.57 G/DL
same,BASOPHIL,[5],1.07%
same,EOSINOPHIL,[5],0.27%
same,ERYTHROCYTE COUNT,[5],5.61 x10E6/uL
same,HEMATOCRIT,[5],34.27%
same,HEMOGLOBIN,[5],10.67 G/DL
same,LEUKOCYTE COUNT,[5],17.3 x10E3/uL
same,LYMPHOCYTE,[5],66.33%
same,MEAN CORPUSCULAR HEMOGLOBIN,[5],19 pg
same,MEAN CORPUSCULAR HEMOGLOBIN CONCENTRATION,[5],31.13 G/DL
same,MEAN CORPUSCULAR VOLUME,[5],61.13 fL
same,MONOCYTE,[5],3.5%
same,NEUTROPHIL,[5],27.87%
same,PLATELET COUNT,[5],1221.33 x10E3/uL
same,ALANINE AMINOTRANSFERASE,[5],31 u/L
same,ALBUMIN,[5],2.83 G/DL
same,ALKALINE PHOSPHATASE,[5],157 u/L
same,ASPARTATE AMINOTRANSFERASE,[5],47.67 u/L
same,BLOOD UREA NITROGEN,[5],12.67 mg/dL
same,CHLORIDE,[5],105 MEQ/L
same,CHOLESTEROL,[5],58.67 mg/dL
same,CREATINE PHOSPHOKINASE,[5],142.33 u/L
same,CREATININE,[5],0.47 mg/dL
same,GLUCOSE,[5],168 mg/dL
same,PHOSPHORUS,[5],11.97 mg/dL
same,POTASSIUM,[5],6.27 MEQ/L
same,SODIUM,[5],148.33 MEQ/L
same,TOTAL BILIRUBIN,[5],0.2 mg/dL
same,TOTAL PROTEIN,[5],5 G/DL
same,BASOPHIL,[6],1.2%
same,EOSINOPHIL,[6],0.25%
same,ERYTHROCYTE COUNT,[6],4.38 x10E6/uL
same,HEMATOCRIT,[6],26.95%
same,HEMOGLOBIN,[6],8.35 G/DL
same,LEUKOCYTE COUNT,[6],3.5 x10E3/uL
same,LYMPHOCYTE,[6],64.7%
same,MEAN CORPUSCULAR HEMOGLOBIN,[6],19.1 pg
same,MEAN CORPUSCULAR HEMOGLOBIN CONCENTRATION,[6],31 G/DL
same,MEAN CORPUSCULAR VOLUME,[6],61.65 fL
same,MONOCYTE,[6],3.45%
same,NEUTROPHIL,[6],24.5%
same,PLATELET COUNT,[6],1541 x10E3/uL
same,ALANINE AMINOTRANSFERASE,[6],27 u/L
same,ALBUMIN,[6],2.6 G/DL
same,ALKALINE PHOSPHATASE,[6],256 u/L
same,ASPARTATE AMINOTRANSFERASE,[6],105 u/L
same,BLOOD UREA NITROGEN,[6],64 mg/dL
same,CHLORIDE,[6],103 MEQ/L
same,CHOLESTEROL,[6],43 mg/dL
same,CREATINE PHOSPHOKINASE,[6],183 u/L
same,CREATININE,[6],0.6 mg/dL
same,GLUCOSE,[6],107 mg/dL
same,PHOSPHORUS,[6],19.1 mg/dL
same,POTASSIUM,[6],9.9 MEQ/L
same,SODIUM,[6],141 MEQ/L
same,TOTAL BILIRUBIN,[6],0.3 mg/dL
same,TOTAL PROTEIN,[6],5.3 G/DL

# — ChEMBL document CHEMBL3885881, “DrugMatrix”
